# Experiments:
# A498 = assay: Cytotoxicity against human A498 cells assessed as cell growth at 10 uM after 48 hrs by MTT assay; type: functional; details: A498, 48 h, read-out: Activity
# CAKI-1 = assay: Cytotoxicity against human Caki1 cells assessed as cell growth at 10 uM after 48 hrs by MTT assay; type: functional; details: CAKI-1, 48 h, read-out: Activity
# SN12C = assay: Cytotoxicity against human SN12C cells assessed as cell growth at 10 uM after 48 hrs by MTT assay; type: functional; details: read-out: Activity
# UO-31 = assay: Cytotoxicity against human UO31 cells assessed as cell growth at 10 uM after 48 hrs by MTT assay; type: functional; details: UO-31, 48 h, read-out: Activity
# LOX IMVI = assay: Cytotoxicity against human LOXIMVI cells assessed as cell growth at 10 uM after 48 hrs by MTT assay; type: functional; details: read-out: Activity
# EKVX = assay: Cytotoxicity against human EKVX cells assessed as cell growth at 10 uM after 48 hrs by MTT assay; type: functional; details: read-out: Activity
# HOP-62 = assay: Cytotoxicity against human HOP62 cells assessed as cell growth at 10 uM after 48 hrs by MTT assay; type: functional; details: HOP-62, 48 h, read-out: Activity
# COLO 205 = assay: Cytotoxicity against human COLO205 cells assessed as cell growth at 10 uM after 48 hrs by MTT assay; type: functional; details: COLO 205, 48 h, read-out: Activity
# MCF7 = assay: Cytotoxicity against human MCF7 cells assessed as cell growth at 10 uM after 48 hrs by MTT assay; type: functional; details: MCF7, 48 h, read-out: Activity
# MDA-MB-231 = assay: Cytotoxicity against human MDA-MB-231 cells assessed as cell growth at 10 uM after 48 hrs by MTT assay; type: functional; details: MDA-MB-231, 48 h, read-out: Activity
# MDA-MB-435 = assay: Cytotoxicity against human MDA-MB-435 cells assessed as cell growth at 10 uM after 48 hrs by MTT assay; type: functional; details: MDA-MB-435, 48 h, read-out: Activity
# NCI/ADR-RES = assay: Cytotoxicity against human NCI/ADR-RES cells assessed as cell growth at 10 uM after 48 hrs by MTT assay; type: functional; details: read-out: Activity
# OVCAR-3 [1] = assay: Cytotoxicity against human OVCAR-3 cells assessed as cell growth at 10 uM after 48 hrs by MTT assay; type: functional; details: OVCAR-3, 48 h, read-out: Activity
# OVCAR-4 = assay: Cytotoxicity against human OVCAR4 cells assessed as cell growth at 10 uM after 48 hrs by MTT assay; type: functional; details: OVCAR-4, 48 h, read-out: Activity
# OVCAR-5 = assay: Cytotoxicity against human OVCAR5 cells assessed as cell growth at 10 uM after 48 hrs by MTT assay; type: functional; details: OVCAR-5, 48 h, read-out: Activity
# OVCAR-8 [2] = assay: Cytotoxicity against human OVCAR8 cells assessed as cell growth at 10 uM after 48 hrs by MTT assay; type: functional; details: OVCAR-8, 48 h, read-out: Activity
# CCRF-CEM = assay: Cytotoxicity against human CCRF-CEM cells assessed as cell growth at 10 uM after 48 hrs by MTT assay; type: functional; details: read-out: Activity
# K562 = assay: Cytotoxicity against human K562 cells assessed as cell growth at 10 uM after 48 hrs by MTT assay; type: functional; details: K562, 48 h, read-out: Activity
# RPMI-8226 = assay: Cytotoxicity against human RPMI8226 cells assessed as cell growth at 10 uM after 48 hrs by MTT assay; type: functional; details: RPMI-8226, 48 h, read-out: Activity
# SR = assay: Cytotoxicity against human SR cells assessed as cell growth at 10 uM after 48 hrs by MTT assay; type: functional; details: read-out: Activity
# M14 = assay: Cytotoxicity against human M14 cells assessed as cell growth at 10 uM after 48 hrs by MTT assay; type: functional; details: M14, 48 h, read-out: Activity
# SK-MEL-28 = assay: Cytotoxicity against human SK-MEL-28 cells assessed as cell growth at 10 uM after 48 hrs by MTT assay; type: functional; details: SK-MEL-28, 48 h, read-out: Activity
# UACC-62 = assay: Cytotoxicity against human UACC62 cells assessed as cell growth at 10 uM after 48 hrs by MTT assay; type: functional; details: UACC-62, 48 h, read-out: Activity
# DU-145 = assay: Cytotoxicity against human DU145 cells assessed as cell growth at 10 uM after 48 hrs by MTT assay; type: functional; details: DU-145, 48 h, read-out: Activity
# PC-3 = assay: Cytotoxicity against human PC3 cells assessed as cell growth at 10 uM after 48 hrs by MTT assay; type: functional; details: PC-3, 48 h, read-out: Activity
# SF-268 = assay: Cytotoxicity against human SF268 cells assessed as cell growth at 10 uM after 48 hrs by MTT assay; type: functional; details: SF-268, 48 h, read-out: Activity
# SF-295 = assay: Cytotoxicity against human SF295 cells assessed as cell growth at 10 uM after 48 hrs by MTT assay; type: functional; details: SF-295, 48 h, read-out: Activity
# U-251 = assay: Cytotoxicity against human U251 cells assessed as cell growth at 10 uM after 48 hrs by MTT assay; type: functional; details: U-251, 48 h, read-out: Activity
# [3] = target: Cyclin-dependent kinase 1/cyclin B1 (Homo sapiens) (UniProt P06493+P14635); assay: Inhibition of human CDK1/Cyclin B assessed as residual enzyme activity at 3 uM after 40 mins by scintillation counting; type: protein-complex assay
# [4] = target: Cyclin-dependent kinase 2/cyclin A (Homo sapiens) (UniProt P24941+P20248+P78396); assay: Inhibition of human CDK2/Cyclin A assessed as residual enzyme activity at 0.3 uM after 40 mins by scintillation counting; type: protein-complex assay
# OVCAR-3 [5] = assay: Cytotoxicity against human OVCAR-3 cells assessed as cell growth at 1 uM after 1 to 11 days by MTT assay; type: functional; details: read-out: Activity
# HL-60(TB) [6] = assay: Cytotoxicity against human HL-60(TB) cells assessed as cell growth at 10 uM after 1 to 11 days by MTT assay; type: functional; details: read-out: Activity
# HOP-92 = assay: Cytotoxicity against human HOP92 cells assessed as cell growth at 100 uM after 1 to 11 days by MTT assay; type: functional; details: read-out: Activity
# SF-539 = assay: Cytotoxicity against human SF539 cells assessed as cell growth at 100 uM after 1 to 11 days by MTT assay; type: functional; details: read-out: Activity
# MDA-MB-468 = assay: Cytotoxicity against human MDA-MB-468 cells assessed as cell growth at 100 uM after 1 to 11 days by MTT assay; type: functional; details: read-out: Activity
# NCI-H522 = assay: Cytotoxicity against human NCI-H522 cells after 1 to 11 days by MTT assay; type: functional
# SNB-75 = assay: Cytotoxicity against human SNB75 cells assessed as cell growth at 1 mM after 1 to 11 days by MTT assay; type: functional; details: read-out: Activity
# HL-60(TB) [7] = assay: Cytotoxicity against human HL-60(TB) cells after 1 to 11 days by MTT assay; type: functional
# OVCAR-8 [8] = assay: Cytotoxicity against human OVCAR8 cells assessed as cell growth at 0.1 uM after 1 to 11 days by MTT assay; type: functional; details: read-out: Activity
# [9] = read-out: LC50 (the source's name)
# Chain of Cyclin-dependent kinase 1/cyclin B1 (Homo sapiens) (P06493 whole entry, looked up): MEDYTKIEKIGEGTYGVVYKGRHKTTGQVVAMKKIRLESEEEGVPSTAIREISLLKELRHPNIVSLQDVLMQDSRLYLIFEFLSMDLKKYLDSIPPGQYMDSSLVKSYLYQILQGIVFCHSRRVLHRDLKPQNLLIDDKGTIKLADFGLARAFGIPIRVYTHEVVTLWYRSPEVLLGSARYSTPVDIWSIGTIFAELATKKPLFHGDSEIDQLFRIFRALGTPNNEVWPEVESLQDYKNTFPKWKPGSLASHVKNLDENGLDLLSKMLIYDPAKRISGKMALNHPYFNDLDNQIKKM
# Chain of Cyclin-dependent kinase 1/cyclin B1 (Homo sapiens) (P14635 whole entry, looked up): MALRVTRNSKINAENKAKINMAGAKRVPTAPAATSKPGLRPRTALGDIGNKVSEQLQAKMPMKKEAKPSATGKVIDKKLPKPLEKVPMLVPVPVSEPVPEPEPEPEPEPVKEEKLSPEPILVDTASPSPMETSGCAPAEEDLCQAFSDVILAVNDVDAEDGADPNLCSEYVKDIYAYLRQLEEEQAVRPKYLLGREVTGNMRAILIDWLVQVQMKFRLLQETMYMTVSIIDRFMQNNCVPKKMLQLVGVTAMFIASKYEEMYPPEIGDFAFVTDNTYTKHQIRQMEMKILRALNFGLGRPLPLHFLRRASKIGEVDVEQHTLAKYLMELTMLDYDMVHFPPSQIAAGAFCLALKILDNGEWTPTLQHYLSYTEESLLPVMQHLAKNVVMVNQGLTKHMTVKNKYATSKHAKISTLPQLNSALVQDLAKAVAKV
smiles,measurement,setting,value
CN1C(=O)/C(=C2/C(=O)N(C)c3ncccc32)c2cccnc21,growth at 10 µM,A498,120%
same,growth at 10 µM,CAKI-1,95.5%
same,growth at 10 µM,SN12C,105%
same,growth at 10 µM,UO-31,88.3%
same,growth at 10 µM,LOX IMVI,101%
same,growth at 10 µM,EKVX,98.4%
same,growth at 10 µM,HOP-62,91.1%
same,growth at 10 µM,COLO 205,117%
same,growth at 10 µM,MCF7,114%
same,growth at 10 µM,MDA-MB-231,117%
same,growth at 10 µM,MDA-MB-435,101%
same,growth at 10 µM,NCI/ADR-RES,85.5%
same,growth at 10 µM,OVCAR-3 [1],132%
same,growth at 10 µM,OVCAR-4,99.8%
same,growth at 10 µM,OVCAR-5,86.7%
same,growth at 10 µM,OVCAR-8 [2],88.8%
same,growth at 10 µM,CCRF-CEM,89.4%
same,growth at 10 µM,K562,137%
same,growth at 10 µM,RPMI-8226,105%
same,growth at 10 µM,SR,124%
same,growth at 10 µM,M14,92.7%
same,growth at 10 µM,SK-MEL-28,106%
same,growth at 10 µM,UACC-62,103%
same,growth at 10 µM,DU-145,119%
same,growth at 10 µM,PC-3,100%
same,growth at 10 µM,SF-268,103%
same,growth at 10 µM,SF-295,98.9%
same,growth at 10 µM,U-251,95.8%
same,Activity,[3],95%
same,Activity,[4],114%
O=C1Nc2ncccc2/C1=C1/Nc2ccccc2C1=O,growth at 10 µM,A498,117%
same,growth at 10 µM,CAKI-1,53.7%
same,growth at 10 µM,SN12C,90.6%
same,growth at 10 µM,UO-31,46.2%
same,growth at 10 µM,LOX IMVI,76.3%
same,growth at 10 µM,EKVX,30.6%
same,growth at 10 µM,HOP-62,68.8%
same,growth at 10 µM,COLO 205,82.8%
same,growth at 10 µM,MCF7,41%
same,growth at 10 µM,MDA-MB-231,78.3%
same,growth at 10 µM,MDA-MB-435,92.8%
same,growth at 10 µM,NCI/ADR-RES,82.7%
same,growth at 10 µM,OVCAR-3 [1],75.8%
same,growth at 10 µM,OVCAR-4,80.4%
same,growth at 10 µM,OVCAR-5,77.7%
same,growth at 10 µM,OVCAR-8 [2],84.4%
same,growth at 10 µM,CCRF-CEM,88.4%
same,growth at 10 µM,K562,85.5%
same,growth at 10 µM,RPMI-8226,75.4%
same,growth at 10 µM,SR,82.5%
same,growth at 10 µM,M14,93.8%
same,growth at 10 µM,SK-MEL-28,123%
same,growth at 10 µM,UACC-62,79.6%
same,growth at 10 µM,DU-145,81.2%
same,growth at 10 µM,PC-3,73%
same,growth at 10 µM,SF-268,84.4%
same,growth at 10 µM,SF-295,102%
same,growth at 10 µM,U-251,88.2%
same,Activity,[3],65%
same,Activity,[4],99%
O=C1Nc2ncccc2/C1=C1/Nc2ccccc2/C1=N\O,growth at 10 µM,A498,-11.7%
same,growth at 10 µM,CAKI-1,12.4%
same,growth at 10 µM,SN12C,72.8%
same,growth at 10 µM,UO-31,10.6%
same,growth at 10 µM,LOX IMVI,44.5%
same,growth at 1 µM,OVCAR-3 [5],93%
same,growth at 10 µM,HL-60(TB) [6],80%
same,growth at 100 µM,HOP-92,36%
same,growth at 100 µM,SF-539,60%
same,growth at 100 µM,MDA-MB-468,18%
same,GI50,NCI-H522,> 100 µM
same,TGI,NCI-H522,> 100 µM
same,CC50,NCI-H522; [9],> 100 µM
same,growth at 1000 µM,SNB-75,19%
same,GI50,HL-60(TB) [7],5.23 µM
same,TGI,HL-60(TB) [7],> 100 µM
same,CC50,HL-60(TB) [7]; [9],> 100 µM
same,growth at 10 µM,EKVX,35.5%
same,growth at 10 µM,HOP-62,45.9%
same,growth at 10 µM,COLO 205,106%
same,growth at 10 µM,MCF7,87.8%
same,growth at 10 µM,MDA-MB-231,78.6%
same,growth at 10 µM,MDA-MB-435,72.6%
same,growth at 10 µM,NCI/ADR-RES,71.8%
same,growth at 10 µM,OVCAR-3 [1],69.3%
same,growth at 10 µM,OVCAR-4,86.7%
same,growth at 10 µM,OVCAR-5,87.7%
same,growth at 10 µM,OVCAR-8 [2],79.6%
same,growth at 10 µM,CCRF-CEM,84.8%
same,growth at 10 µM,K562,53.2%
same,growth at 10 µM,RPMI-8226,69.5%
same,growth at 10 µM,SR,32.8%
same,growth at 10 µM,M14,56.4%
same,growth at 10 µM,SK-MEL-28,75.3%
same,growth at 10 µM,UACC-62,56.7%
same,growth at 10 µM,DU-145,82.2%
same,growth at 10 µM,PC-3,67.7%
same,growth at 10 µM,SF-268,86.2%
same,growth at 10 µM,SF-295,94.9%
same,growth at 10 µM,U-251,87.3%
same,Activity,[3],69%
same,Activity,[4],100%
same,growth at 0.1 µM,OVCAR-8 [8],79%

# — ChEMBL document CHEMBL1154822, “Synthesis and antiproliferative activity of 7-azaindirubin-3'-oxime, a 7-aza isostere of the natural indirubin pharmacophore” (J Nat Prod, 2009)
